Series [1] in a line: Steady state CV, gold ultramicroelectrode. Type of series: physicochemical. Particulars: Tris pH 8, prepared aerobically then deoxygenated, gold UME. The source says: To provide additional evidence for DXPS-dependent reduction of 1, we used electrochemistry to continuously monitor the redox state of 1 during the course of a DXPS reaction. For these experiments, we used a gold ultramicroelectrode, which allowed us to observe the steady-state current corresponding to the reduction of 1, under diffusion control, during the progression of the reaction. […] Using Equation 4 (Electrochemical Measurements, Materials and Methods), it was estimated that the observed pseudo steady state current at −0.50 V corresponded to a one-electron transfer reaction. We used this voltage to interrogate the reduction of 1 during reaction with enzyme and substrates. […] Reactions were initiated in the cell via addition of different combinations of DXPS and substrates which were previously deoxygenated in an anaerobic chamber (Fig 9, S26). […] Returning to the CV, when measured after the chemical reaction transpires, the reduction peak nearly vanished as expected (Fig 9, S28).
Reaction solutions were prepared containing 2 mM MgCl2, 100 mM NaCl, 50 mM Tris pH 8, 1 mM ThDP, and 1 (final 1 mM) under aerobic conditions to allow for oxidation of 1. […] Reactions were initiated and mixed via gas tight Hamilton syringe at ~300 s and measured for at least 200 s. […]

Series [2] addresses T1, alcohol dehydrogenase (ADH) (Equus caballus, UniProt P00327).
T1 construct: purchased Sigma Aldrich 55689
The experiment in a line: Inhibition of ADH. In kind it is biochemical. The note with it: up to 200 μM, MES pH 6.2. As for the experimental part:
Reaction mixtures containing MES (100 mM, pH 6.2), MgCl2 (2 mM), ThDP (5 mM), ADH (16 U/mL), NADH (170 μM), and 1 (0 or 200 μM) were preincubated at 25 °C for 5 min. Enzymatic reactions were initiated via the addition of 20 μL of 10x acetaldehyde (final 1mM), or water for background controls, for a final well volume of 200 μL. Immediately following initiation, NADH depletion was monitored at 340 nm at 25 °C for 6 min with a 11 second time interval. Initial velocities of ethanol formation were measured as above and arithmetically corrected for background rates. Reported standard errors of the mean for Kis are calculated from three replicates.

Another series has as its target T2, D427A DXPS (Escherichia coli, UniProt P77488, D427A).
T2 construct: made in house
The experiment in a line: DXPS-IspC coupled assay, D427A variant. In kind it is biochemical, E. coli. As for the experimental part: To determine the role of active site network residues in the activity of oximes, inhibitory activity of 1 was assessed against EcD427A, EcH431A, and EcR99A by the DXPS-IspC coupled assay[41],[42] (Fig 4B, S3, Table S1). Ki determination was performed by varying [pyruvate] in order to assess the impact of residue substitutions on the uncompetitive mode of inhibition. […] (8.7 ± 1.2 μM, Fig S3, Table S1).
Inhibitory activity of compounds against DXPS were monitored via a continuous spectrophotometric coupled assay with DXPS and IspC as previously described.[41],[42] […]
When varying pyruvate (0–500 μM), GAP was maintained at 50 μM (3 mM for R478A). […] Immediately following initiation, NADPH depletion was monitored at 340 nm at 25 °C for 7–10 min with a 14–20 second time interval. Initial velocities of DXP formation were determined from the linear portion of the NADPH decay. […] Initial velocities were plotted vs. substrate concentration, and the data were fit to equation 1 (mixed model), 2 (competitive), or 3 (uncompetitive) based on the calculated α value and goodness of fit in GraphPad Prism. Reported standard errors of the mean for Kis are calculated from three replicates.

The values that follow come from article doi:10.1101/2025.03.03.641193, “Trihydroxybenzaldoximes are redox cycling inhibitors of ThDP-dependent DXP synthase” (bioRxiv, 2025).

“Also recorded” adds a separate entry of the source.

`ON=Cc1cc(O)c(O)cc1O` [compound 1, 2,4,5-trihydroxybenzaldoxime]: the “reduction half-height potential (steady state CV)” value in series [1] is on record as ~ −0.35 V. The “Inhibition of ADH” value in series [2] was “did not inhibit; also recorded: not inhibited”. Also, the Ki at D427A DXPS came out at 4.8 ± 0.2 µM. Further, the MOI varying pyruvate entry at D427A DXPS (EcD427A) is “uncompetitive”.
